#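 Compound exposure: 48 hours, 5 concentrations, 96-well plates. The concentration for 50% growth inhibition is given as GI50. At the TGI there is no net growth.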
# What was measured:
# Test in all cases: NCI tumour cell line growth inhibition, 48 h
# 786-0 renal = test system: 786-0 renal
# A498 renal = test system: A498 renal
# A549 NSCLC = test system: A549 NSCLC
# ACHN renal = test system: ACHN renal
# BT-549 breast = test system: BT-549 breast
# CAKI-1 renal = test system: CAKI-1 renal
# CCRF-CEM leukemia = test system: CCRF-CEM leukemia
# COLO 205 colon = test system: COLO 205 colon
# DU-145 prostate = test system: DU-145 prostate
# EKVX NSCLC = test system: EKVX NSCLC
# HCC-2998 colon = test system: HCC-2998 colon
# HCT-116 colon = test system: HCT-116 colon
# HCT-15 colon = test system: HCT-15 colon
# HL-60(TB) leukemia = test system: HL-60(TB) leukemia
# HOP-62 NSCLC = test system: HOP-62 NSCLC
# HOP-92 NSCLC = test system: HOP-92 NSCLC
# HS 578T breast = test system: HS 578T breast
# HT29 colon = test system: HT29 colon
# IGROV1 ovarian = test system: IGROV1 ovarian
# KM12 colon = test system: KM12 colon
# LOX IMVI melanoma = test system: LOX IMVI melanoma
# M14 melanoma = test system: M14 melanoma
# MALME-3M melanoma = test system: MALME-3M melanoma
# MCF7 breast = test system: MCF7 breast
# MDA-MB-231 breast = test system: MDA-MB-231 breast
# MDA-MB-435 = test system: MDA-MB-435
# MDA-MB-468 breast = test system: MDA-MB-468 breast
# MOLT-4 leukemia = test system: MOLT-4 leukemia
# NCI-H226 lung = test system: NCI-H226 lung
# NCI-H23 lung = test system: NCI-H23 lung
# NCI-H522 lung = test system: NCI-H522 lung
# NCI/ADR-RES ovarian = test system: NCI/ADR-RES ovarian
# OVCAR-3 ovarian = test system: OVCAR-3 ovarian
# OVCAR-4 ovarian = test system: OVCAR-4 ovarian
# OVCAR-5 ovarian = test system: OVCAR-5 ovarian
# OVCAR-8 ovarian = test system: OVCAR-8 ovarian
# PC-3 prostate = test system: PC-3 prostate
# RPMI-8226 leukemia = test system: RPMI-8226 leukemia
# RXF 393 renal = test system: RXF 393 renal
# SF-268 CNS = test system: SF-268 CNS
# SF-295 CNS = test system: SF-295 CNS
# SF-539 CNS = test system: SF-539 CNS
# SK-MEL-2 melanoma = test system: SK-MEL-2 melanoma
# SK-MEL-28 melanoma = test system: SK-MEL-28 melanoma
# SK-MEL-5 melanoma = test system: SK-MEL-5 melanoma
# SK-OV-3 ovarian = test system: SK-OV-3 ovarian
# SN12C renal = test system: SN12C renal
# SNB-19 CNS = test system: SNB-19 CNS
# SNB-75 CNS = test system: SNB-75 CNS
# SR leukemia = test system: SR leukemia
# SW-620 colon = test system: SW-620 colon
# T-47D breast = test system: T-47D breast
# TK-10 renal = test system: TK-10 renal
# U251 CNS = test system: U251 CNS
# UACC-257 melanoma = test system: UACC-257 melanoma
# UACC-62 melanoma = test system: UACC-62 melanoma
# UO-31 renal = test system: UO-31 renal
compound,measurement,setting,value
Nc1cc(-c2c[nH]c3ccc(Br)cc23)nc2cc(-c3c[nH]c4ccccc34)nn12,GI50,786-0 renal,1.63 µM
same,TGI,786-0 renal,3.54 µM
same,GI50,A498 renal,2.42 µM
same,TGI,A498 renal,7.74 µM
same,GI50,A549 NSCLC,2.91 µM
same,TGI,A549 NSCLC,11.5 µM
same,GI50,ACHN renal,2.77 µM
same,TGI,ACHN renal,9.2 µM
same,GI50,BT-549 breast,9.32 µM
same,TGI,BT-549 breast,21.8 µM
same,GI50,CAKI-1 renal,2.2 µM
same,TGI,CAKI-1 renal,7.33 µM
same,GI50,CCRF-CEM leukemia,3.05 µM
same,TGI,CCRF-CEM leukemia,13.2 µM
same,GI50,COLO 205 colon,1.73 µM
same,TGI,COLO 205 colon,3.33 µM
same,GI50,DU-145 prostate,3.88 µM
same,TGI,DU-145 prostate,14.4 µM
same,GI50,EKVX NSCLC,2.92 µM
same,TGI,EKVX NSCLC,10.9 µM
same,GI50,HCC-2998 colon,1.85 µM
same,TGI,HCC-2998 colon,3.61 µM
same,GI50,HCT-116 colon,1.77 µM
same,TGI,HCT-116 colon,3.39 µM
same,GI50,HCT-15 colon,1.74 µM
same,TGI,HCT-15 colon,3.62 µM
same,GI50,HL-60(TB) leukemia,2.84 µM
same,TGI,HL-60(TB) leukemia,12.7 µM
same,GI50,HOP-62 NSCLC,3.52 µM
same,TGI,HOP-62 NSCLC,12.2 µM
same,GI50,HOP-92 NSCLC,2.06 µM
same,TGI,HOP-92 NSCLC,6.08 µM
same,GI50,HS 578T breast,3.11 µM
same,TGI,HS 578T breast,9.62 µM
same,GI50,HT29 colon,1.98 µM
same,TGI,HT29 colon,4.08 µM
same,GI50,IGROV1 ovarian,3.55 µM
same,TGI,IGROV1 ovarian,14.6 µM
same,GI50,KM12 colon,2.21 µM
same,TGI,KM12 colon,5.31 µM
same,GI50,LOX IMVI melanoma,1.69 µM
same,TGI,LOX IMVI melanoma,3.07 µM
same,GI50,M14 melanoma,2.09 µM
same,TGI,M14 melanoma,5.05 µM
same,GI50,MALME-3M melanoma,1.91 µM
same,TGI,MALME-3M melanoma,3.64 µM
same,GI50,MCF7 breast,2.05 µM
same,TGI,MCF7 breast,5 µM
same,GI50,MDA-MB-231 breast,1.9 µM
same,TGI,MDA-MB-231 breast,3.63 µM
same,GI50,MDA-MB-435,2.95 µM
same,TGI,MDA-MB-435,9.98 µM
same,GI50,MDA-MB-468 breast,1.75 µM
same,TGI,MDA-MB-468 breast,4.13 µM
same,GI50,MOLT-4 leukemia,2.4 µM
same,TGI,MOLT-4 leukemia,6.72 µM
same,GI50,NCI-H226 lung,6.13 µM
same,TGI,NCI-H226 lung,41.4 µM
same,GI50,NCI-H23 lung,2.36 µM
same,TGI,NCI-H23 lung,6.64 µM
same,GI50,NCI-H522 lung,1.68 µM
same,TGI,NCI-H522 lung,3.51 µM
same,GI50,NCI/ADR-RES ovarian,3.33 µM
same,TGI,NCI/ADR-RES ovarian,13.3 µM
same,GI50,OVCAR-3 ovarian,3.44 µM
same,TGI,OVCAR-3 ovarian,14 µM
same,GI50,OVCAR-4 ovarian,3.97 µM
same,TGI,OVCAR-4 ovarian,19 µM
same,GI50,OVCAR-5 ovarian,2.08 µM
same,TGI,OVCAR-5 ovarian,5.36 µM
same,GI50,OVCAR-8 ovarian,4.06 µM
same,TGI,OVCAR-8 ovarian,18.1 µM
same,GI50,PC-3 prostate,2.57 µM
same,TGI,PC-3 prostate,8.4 µM
same,GI50,RPMI-8226 leukemia,2.88 µM
same,TGI,RPMI-8226 leukemia,9.09 µM
same,GI50,RXF 393 renal,2.66 µM
same,TGI,RXF 393 renal,7.87 µM
same,GI50,SF-268 CNS,3.72 µM
same,TGI,SF-268 CNS,18.5 µM
same,GI50,SF-295 CNS,1.9 µM
same,TGI,SF-295 CNS,4.01 µM
same,GI50,SF-539 CNS,1.74 µM
same,TGI,SF-539 CNS,3.38 µM
same,GI50,SK-MEL-2 melanoma,2.44 µM
same,TGI,SK-MEL-2 melanoma,7.13 µM
same,GI50,SK-MEL-28 melanoma,2.23 µM
same,TGI,SK-MEL-28 melanoma,5.71 µM
same,GI50,SK-MEL-5 melanoma,2.7 µM
same,TGI,SK-MEL-5 melanoma,7.62 µM
same,GI50,SK-OV-3 ovarian,7.75 µM
same,TGI,SK-OV-3 ovarian,21 µM
same,GI50,SN12C renal,4.03 µM
same,TGI,SN12C renal,16.4 µM
same,GI50,SNB-19 CNS,3.67 µM
same,TGI,SNB-19 CNS,14.1 µM
same,GI50,SNB-75 CNS,2.17 µM
same,TGI,SNB-75 CNS,11.3 µM
same,GI50,SR leukemia,2.23 µM
same,TGI,SR leukemia,> 100 µM
same,GI50,SW-620 colon,1.87 µM
same,TGI,SW-620 colon,3.7 µM
same,GI50,T-47D breast,3.15 µM
same,TGI,T-47D breast,20.3 µM
same,GI50,TK-10 renal,2.56 µM
same,TGI,TK-10 renal,12 µM
same,GI50,U251 CNS,2 µM
same,TGI,U251 CNS,4.57 µM
same,GI50,UACC-257 melanoma,3.86 µM
same,TGI,UACC-257 melanoma,15.1 µM
same,GI50,UACC-62 melanoma,1.88 µM
same,TGI,UACC-62 melanoma,4.35 µM
same,GI50,UO-31 renal,2.74 µM
same,TGI,UO-31 renal,11.8 µM
